Measurements reported in patent US20140378408A1, “NUCLEOSIDE 5'-PHOSPHOROTHIOATE ANALOGUES AND USES THEREOF” (BAR-ILAN UNIVERSITY, an Israeli University, priority 2012, published 2014).
Where two headings read alike, the source gives them in different places. Blank lines part the entries; values can stand above or below the molecule they belong to.

Experiments:
[1] = ESR OH radical assay, Fe^2+/H2O2 Fenton system; conditions: N/A = minimal radical production exceeds 10%
cortical neurons = assay: Neuroprotection of cultured cortical neurons exposed to FeSO4 or FeSO4/H2O2; type: cell-based; conditions: Table 2, neuroprotection of primary neurons exposed to FeSO4, read-out: IC50
Procedure: FIGS. 10A-10B show the neuroprotective effect of ATP-γ-S and GDP-β-S (0.2-200 μM, t=24 h) as evaluated by MTT production in cortical neurons exposed for 24 h to either FeSO4 at final concentration of 3 μM (10A); or both FeSO4 (3 μM) and H2O2 (100 μM) (10B). The results shown are the mean±SEM of three independent experiments in quadruplicate.
Cultured cortical neurons in 96-well plates were treated with different concentrations of FeSO4, or hydrogen peroxide and FeSO4, for 24 h at 37° C. Following exposure to various insults, the cells were treated with ATP-γ-S and GDP-β-S as described. Cells were subsequently incubated for a further 18-24 h as indicated before being assessed for viability measures. Neurons were treated with ATP-γ-S and GDP-β-S at three concentrations ([…]) simultaneously with 1.5, 3 or 6 μM FeSO4 for 24 h. Following 24 h incubation in the presence of both FeSO4 and ATP-γ-S and GDP-β-S cell viability measures were assessed by XTT assay. All experiments were performed in triplicate.
FeSO4 induced a concentration-dependent decrease in cell viability as assessed by XTT assay and morphological assessment following 24 h of exposure (FIG. 9). The neuroprotective effect of ATP-γ-S and GDP-β-S (due to iron chelation) was evaluated in cortical neurons exposed to FeSO4 for 24 h (FIG. 10).

human P2Y1-R = biological target: T1, human P2Y1-R (Homo sapiens, UniProt P47900); assay: [Ca^2+]i response of 1321N1 astrocytoma cells expressing P2Y1-R GFP; type: cell-based; conditions: agonist; read-out: EC50 at the P2Y1 receptor
T1 construct: expressed in transfected cells; host or cells: 1321N1 astrocytoma cells
T1 sequence (P47900 whole entry): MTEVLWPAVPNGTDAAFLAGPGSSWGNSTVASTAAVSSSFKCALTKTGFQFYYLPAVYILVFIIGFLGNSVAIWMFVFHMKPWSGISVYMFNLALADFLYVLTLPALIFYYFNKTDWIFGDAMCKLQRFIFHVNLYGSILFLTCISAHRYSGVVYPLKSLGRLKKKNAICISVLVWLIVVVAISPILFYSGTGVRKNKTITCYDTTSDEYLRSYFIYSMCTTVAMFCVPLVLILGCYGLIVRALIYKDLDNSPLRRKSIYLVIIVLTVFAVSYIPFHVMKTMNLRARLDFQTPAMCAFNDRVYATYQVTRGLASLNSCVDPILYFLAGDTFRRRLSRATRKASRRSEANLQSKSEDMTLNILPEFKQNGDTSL
Procedure: GFP constructs of human P2Y2-R, P2Y1-R and P2Y11-R were stably expressed in 1321N1 astrocytoma cells, which lack endogenous expression of P2X- and P2Y-receptors. The respective cDNA of the receptor gene was cloned into a pEGFPN1 vector and after transfection, using FuGENE 6 Transfection Reagent (Roche Molecular Biochemicals, Mannheim, Germany), cells were selected with 0.5 mg/ml G418 (geneticine; Merck Chemicals, Darmstadt, Germany) and grown in DMEM supplemented with 10% serum (FCS), 100 U/ml penicillin and 100 U/ml streptomycin at 37° C. and 5% CO2. The expression and cell membrane localization of the respective P2Y receptors was confirmed through the analysis of the GFP fluorescence. The functionality of the expressed GFP-labeled receptor in cells was verified by recording a change of [Ca^2+]i after stimulation with the appropriate receptor agonist.
1321N1 astrocytoma cells transfected with the respective plasmid for P2Y-R-GFP expression plated on coverslips (22 mm diameter) and grown to approximately 80% density, were incubated with 2 μM fura 2/AM and 0.02% pluronic acid in Na-HBS buffer (Hepes buffered saline: 145 mM NaCl, 5.4 mM KCl, 1.8 mM CaCl2, 1 mM MgCl2, 25 mM glucose, 20 mM Hepes/Tris pH 7.4) for 30 min at 37° C. The cells were superfused (1 ml/min, 37° C.) with different concentrations of nucleotide in Na-HBS buffer. The nucleotide-induced change of [Ca^2+] was monitored by detecting the fluorescence intensities with excitations at 340 nm and 380 nm. Only GFP-labeled cells were analyzed. Microsoft Excel (Microsoft Corp., Redmond, Wash., USA) and SigmaPlot (SPSS Inc., Chicago, Ill., USA) were used to derive the concentration-response curves and EC50 values from the average response amplitudes obtained in at least three independent experiments (Ecke et al., 2006; Ecke et al., 2008). Only cells with a clear GFP-signal and with the typical calcium response kinetics upon agonist pulse application were included in the data analysis. The nucleotide induced change of [Ca^2+]i was monitored by detecting the respective emission intensity of fura 2/AM at 510 nm with 340 nm and 380 nm excitations (Ubl et al., 1998). The average maximal amplitude of the responses and the respective standard errors were calculated from ratio of the fura 2/AM. The GFP-tagged P2Y receptors are suitable for pharmacological and physiological studies, as previously reported (Tulapurkar et al., 2004; Tulapurkar et al., 2006; Zylberg et al., 2007).

human NPP1 = biological target: T2, human NPP1 (Homo sapiens, UniProt P22413); assay: Inhibition of NPP1 activity; type: biochemical; conditions: Dixon and Cornish-Bowden methods
T2 construct: made in house; host or cells: COS-7 cells (transfected; protein extract / cell lysate)
T2 sequence (P22413 1-925): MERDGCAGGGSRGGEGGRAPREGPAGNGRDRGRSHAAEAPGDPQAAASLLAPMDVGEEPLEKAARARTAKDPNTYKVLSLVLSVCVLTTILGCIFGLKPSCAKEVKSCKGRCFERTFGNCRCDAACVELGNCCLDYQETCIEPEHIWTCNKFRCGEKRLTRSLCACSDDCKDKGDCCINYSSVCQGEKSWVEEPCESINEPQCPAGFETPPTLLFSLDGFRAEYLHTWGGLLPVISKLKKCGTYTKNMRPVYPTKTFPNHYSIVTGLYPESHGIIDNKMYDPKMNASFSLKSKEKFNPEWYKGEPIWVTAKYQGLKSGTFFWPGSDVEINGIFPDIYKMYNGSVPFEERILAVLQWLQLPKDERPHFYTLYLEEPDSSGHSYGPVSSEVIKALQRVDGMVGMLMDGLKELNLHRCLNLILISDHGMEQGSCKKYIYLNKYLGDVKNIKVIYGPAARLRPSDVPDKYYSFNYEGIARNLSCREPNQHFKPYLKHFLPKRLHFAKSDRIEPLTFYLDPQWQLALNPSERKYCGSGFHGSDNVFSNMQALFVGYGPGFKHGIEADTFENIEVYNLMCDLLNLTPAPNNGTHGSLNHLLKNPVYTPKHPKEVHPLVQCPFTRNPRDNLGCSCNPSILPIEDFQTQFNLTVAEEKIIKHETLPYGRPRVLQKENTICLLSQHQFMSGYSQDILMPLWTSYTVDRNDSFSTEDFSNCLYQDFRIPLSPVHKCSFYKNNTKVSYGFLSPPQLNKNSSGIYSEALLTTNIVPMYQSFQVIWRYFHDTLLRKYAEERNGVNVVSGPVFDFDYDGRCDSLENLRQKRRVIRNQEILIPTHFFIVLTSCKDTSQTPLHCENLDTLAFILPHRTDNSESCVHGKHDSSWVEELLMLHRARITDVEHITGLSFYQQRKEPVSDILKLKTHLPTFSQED

human NPP3 = biological target: T3, human NPP3 (Homo sapiens, UniProt O14638); assay: Inhibition of NPP3 activity; type: biochemical; conditions: read-out: inhibition of NPP3 activity
T3 construct: made in house; host or cells: COS-7 cells (transfected; protein extract / cell lysate)
T3 sequence (O14638 1-875): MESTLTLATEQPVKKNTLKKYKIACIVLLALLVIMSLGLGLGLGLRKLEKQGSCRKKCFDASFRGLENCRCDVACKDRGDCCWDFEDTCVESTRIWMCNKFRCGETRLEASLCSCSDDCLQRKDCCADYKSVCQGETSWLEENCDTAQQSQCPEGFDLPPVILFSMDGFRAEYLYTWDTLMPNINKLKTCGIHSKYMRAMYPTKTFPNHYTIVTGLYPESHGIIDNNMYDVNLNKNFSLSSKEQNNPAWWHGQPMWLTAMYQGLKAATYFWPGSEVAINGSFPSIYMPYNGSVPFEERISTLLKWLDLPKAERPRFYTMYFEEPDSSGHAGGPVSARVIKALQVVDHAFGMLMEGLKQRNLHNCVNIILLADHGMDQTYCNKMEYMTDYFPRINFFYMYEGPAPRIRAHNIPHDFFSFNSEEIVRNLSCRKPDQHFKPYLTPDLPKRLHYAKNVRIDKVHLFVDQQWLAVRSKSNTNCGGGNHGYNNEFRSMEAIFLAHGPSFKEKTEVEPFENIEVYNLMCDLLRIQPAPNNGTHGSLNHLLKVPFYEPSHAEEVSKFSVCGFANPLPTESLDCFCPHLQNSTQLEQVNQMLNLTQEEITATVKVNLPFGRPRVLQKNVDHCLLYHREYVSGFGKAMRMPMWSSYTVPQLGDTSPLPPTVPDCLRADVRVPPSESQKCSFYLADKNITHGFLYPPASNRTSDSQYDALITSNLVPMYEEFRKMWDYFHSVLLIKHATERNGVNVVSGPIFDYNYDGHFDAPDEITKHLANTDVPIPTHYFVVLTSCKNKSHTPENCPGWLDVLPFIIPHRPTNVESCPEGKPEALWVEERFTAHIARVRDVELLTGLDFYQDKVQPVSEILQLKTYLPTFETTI
Procedure: Pnp-TMP hydrolyses were carried out at 37° C. in 0.2 ml of the following incubation mixture: in mM, 1 CaCl2, 130 NaCl, 5 KCl and 50 Tris, pH 8.5, with or without the analogue tested and/or substrates. Substrates and analogues were all used at the final concentration of 100 μM. […] For pnp-TMP hydrolysis, the production of para-nitro-phenol was measured at […], 15 min after the initiation of the reaction.
The samples were centrifuged for 5 min at 13,000×g. Supernatants were neutralized with 1 M KOH (Fisher Scientific, Ottawa, ON, Canada) at 4° C. and centrifuged for 5 min at 13,000×g.

Aβ28-Cu^+ complex = biological target: T4, Aβ28-Cu^+ complex (Homo sapiens, UniProt P05067); assay: Titration of Aβ28-Cu^+ complex by chelators monitored by 1H-NMR; conditions: 0.8 mM Aβ28-Cu^+, pD 7; for effect on Aβ28-Cu^+ 1H-NMR spectrum: 6 eq chelator
T4 construct: we first studied Aβ28, as a more soluble fragment of Aβ40; purchased Sigma-Aldrich
T4 sequence (P05067 672-699 limits assumed, one chain of several): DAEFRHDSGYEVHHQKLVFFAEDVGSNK

PC12 cells = assay: Inhibition of Fe(II)-induced ROS formation in PC12 cells (DCFH-DA); type: cell-based; conditions: PC12 cells, FeSO4 0.16 μM, 1 h, DCFH-DA; read-out: IC50 inhibition of ROS formation
Procedure: In this study, nucleoside 5′-phosphorothioate analogues were explored as inhibitors of Fe(II)-induced oxidative stress in PC12 cells used as a neuronal model. Reduction of ROS production in PC12 cells by each one of the tested analogues was measured by DCFH-DA, a radical sensitive indicator. After DCFH-DA was removed, the tested analogue was added to the cells at a final concentration of 0.2-200 μM. Oxidation was initiated by the addition of FeSO4 (0.16 μM) to the wells. The plates were incubated for 1 h at 37° C., during which the absorbance was read by a Tecan fluorometer at 485/530 nm.

- IC90 [1]: 491 ± 5 µM
SMILES: N[C@@H](CCC(=O)N[C@@H](CS)C(=O)NCC(=O)O)C(=O)O [GSH, glutathione]

- IC50 (cortical neurons; Cortical neurone): 23 ± 3.1 µM
SMILES: Cc1c(C)c2c(c(C)c1O)CCC(C)(C(=O)O)O2 (centres unmarked) [Trolox]

- IC50 (cortical neurons; Cortical neurone): 19 ± 1.9 µM
SMILES: Nc1ncnc2c1ncn2[C@@H]1O[C@H](COP(=O)(O)OP(=O)(O)O)[C@@H](O)[C@H]1O [ADP, adenosine diphosphate]

SMILES: Nc1nc2c(ncn2[C@@H]2O[C@H](COP(=O)(O)OP(=O)(O)O)[C@@H](O)[C@H]2O)c(=O)[nH]1 [GDP, gunosine diphosphate]
- IC50 (cortical neurons): 21 ± 3.1 µM

SMILES: Nc1ncnc2c1ncn2C1OC(COP(O)(=S)OP(=O)(O)CP(=O)(O)O)C(O)C1O (stereo not drawn) [APPCP-α-S, adenosine 5′-[Pα-thio]-β,γ-methylenetriphosphate]
- EC50 (human P2Y1-R): > 10 µM
- type of inhibition (human NPP1): mixed type inhibition, predominantly competitive
- inhibition at 100 µM (human NPP3): 23 to 43%

SMILES: O=P([O-])([O-])OP(=O)([O-])OP(=O)([O-])[O-].[Na+].[Na+].[Na+].[Na+].[Na+] [triphosphate, sodium triphosphate]
- effect on Aβ28-Cu^+ 1H-NMR spectrum (Aβ28-Cu^+ complex): showed only Phe peaks reappearances without any His signals

SMILES: [Na+].[Na+].[Na+].[O-]P([O-])([O-])=S [Thiophosphate, trisodiumthiophosphate]
- effect on Aβ28-Cu^+ 1H-NMR spectrum (Aβ28-Cu^+ complex): significant sharpening of the Aβ28 spectrum

- IC50 (cortical neurons; Cortical neurone): 32 ± 2.3 µM
SMILES: Nc1nc2c(ncn2[C@@H]2O[C@H](COP(=O)(O)OP(=O)(O)OP(=O)(O)O)[C@@H](O)[C@H]2O)c(=O)[nH]1 [GTP, guanosine triphosphate]

- IC50 (cortical neurons; Cortical neurone): 25 ± 3.3 µM
SMILES: O=C(O)CC(O)(CC(=O)O)C(=O)O [Citrate]

SMILES: Nc1nc2c(ncn2[C@@H]2O[C@H](COP(=O)(O)OP(=O)(O)OP(O)(O)=S)[C@@H](O)[C@H]2O)c(=O)[nH]1 [GTP-γ-S, guanosine 5′-[γ-thio]triphosphate]
- IC50 (PC12 cells): 5 µM
- IC50 (cortical neurons): 0.04 ± 0.01 µM
- equivalents at which the spectrum resembled that of pure Aβ28 (Aβ28-Cu^+ complex): 3.2 eq
